Activity calls are given as the source filed them. No cut-off for these calls is given here.
Experiments:
[1] = test system: Staphylococcus aureus; test: Antibacterial activity against methicillin-resistant Staphylococcus aureus up to 20 ug/ml; format: functional, organism-based
[2] = test system: Mycobacterium intracellulare; test: Antibacterial activity against Mycobacterium intracellulare up to 20 ug/ml; format: functional, organism-based
[3] = test system: Plasmodium falciparum; test: Antimalarial activity against chloroquine-sensitive Plasmodium falciparum D6 by lactate dehydrogenase assay; format: functional, organism-based; conditions: Plasmodium falciparum, D6; read-out: IC50
[4] = Selectivity index, ratio of IC50 for African green monkey Vero cells to IC50 for chloroquine-sensitive Plasmodium falciparum D6; format: toxicity, cell-based; conditions: read-out: Ratio IC50
[5] = test system: Plasmodium falciparum; test: Antimalarial activity against chloroquine-resistant Plasmodium falciparum W2 by lactate dehydrogenase assay; format: functional, organism-based; conditions: Plasmodium falciparum, W2; read-out: IC50
[6] = Selectivity index, ratio of IC50 for African green monkey Vero cells to IC50 for chloroquine-resistant Plasmodium falciparum W2; format: toxicity, cell-based; conditions: read-out: Ratio IC50
[7] = test system: Vero; test: Cytotoxicity against African green monkey Vero cells by neutral red uptake assay; format: cell-based; conditions: Chlorocebus sabaeus
[8] = test system: SK-MEL; test: Cytotoxicity against human SK-MEL cells by neutral red uptake assay; format: cell-based
[9] = test system: KB; test: Cytotoxicity against human KB cells by neutral red uptake assay; format: cell-based
[10] = test system: BT-549; test: Cytotoxicity against human BT549 cells by neutral red uptake assay; format: cell-based
[11] = test system: SK-OV-3; test: Cytotoxicity against human SKOV3 cells by neutral red uptake assay; format: cell-based
[12] = test system: LLC-PK1; test: Cytotoxicity against pig LLC-PK1 cells by neutral red uptake assay; format: cell-based; conditions: Sus scrofa
[13] = Inhibition of beta-hematin formation after 16 hrs; format: physicochemical
[14] = test system: Leishmania donovani; test: Antileishmanial activity against Leishmania donovani promastigotes by Alamar Blue assay; format: functional, organism-based
[15] = test system: Plasmodium berghei; test: Antimalarial activity against Plasmodium berghei infected in mouse assessed as reduction in parasitemia at 100 mg/kg/day, po for 4 days measured up to day 14; format: functional
[16] = test system: Staphylococcus aureus; test: Antibacterial activity against Staphylococcus aureus; format: functional, organism-based
[17] = test system: Staphylococcus aureus; test: Antibacterial activity against methicillin-resistant Staphylococcus aureus; format: functional, organism-based
[18] = test system: Mycobacterium intracellulare; test: Antibacterial activity against Mycobacterium intracellulare; format: functional, organism-based
[19] = test system: Cryptococcus neoformans; test: Antifungal activity against Cryptococcus neoformans by broth microdilution assay; format: functional, organism-based
[20] = test system: Pseudomonas aeruginosa; test: Antibacterial activity against Pseudomonas aeruginosa; format: functional, organism-based
[21] = test system: Escherichia coli; test: Antibacterial activity against Escherichia coli; format: functional, organism-based
[22] = test system: Candida albicans; test: Antifungal activity against Candida albicans by broth microdilution assay; format: functional, organism-based
[23] = test system: Nakaseomyces glabratus; test: Antifungal activity against Candida glabrata by broth microdilution assay; format: functional, organism-based
[24] = test system: Pichia kudriavzevii; test: Antifungal activity against Candida krusei by broth microdilution assay; format: functional, organism-based
[25] = test system: Aspergillus fumigatus; test: Antifungal activity against Aspergillus fumigatus by broth microdilution assay; format: functional, organism-based

Row | SMILES | Activity [2] | IC50 [3] [µg/mL] | selectivity ratio [4] | IC50 [5] [µg/mL] | selectivity ratio [6] | IC50 [7] [µg/mL] | IC50 [8] [µg/mL] | IC50 [9] [µg/mL] | IC50 [10] [µg/mL] | IC50 [11] [µg/mL] | IC50 [12] [µg/mL] | IC50 [13] [µM] | IC50 [14] [µg/mL] | IC90 [14] [µg/mL] | Activity [15] | IC50 [16] [µg/mL] | MBC [16] [µg/mL] | MIC [16] [µg/mL] | IC50 [17] [µg/mL] | IC50 [18] [µg/mL] | other results
1 | CCCCOc1c(OC)cc(NC(C)CCCNC(C)CCCNC(C)CCCNC(C)CCCN)c2nccc(CC)c12.Cl (configuration not stated) | inactive | 0.49 | > 48.5 | 0.35 | > 68 | > 23.8 | > 23.8 | > 23.8 | > 23.8 | > 23.8 | > 23.8 | 10.7 | 3.2 | 7 | inactive | 13.6 | 20 | 20 | 13.2 | 15 | Activity [1]: inactive; MIC [17]: 20 µg/mL; IC50 [19]: 8 µg/mL; MFC [19]: 20 µg/mL; MIC [19]: 20 µg/mL; Activity [20]: inactive; Activity [21]: inactive; Activity [22]: inactive; Activity [23]: inactive; Activity [24]: inactive; Activity [25]: inactive
2 | CCCCOc1c(OC)cc(NC(C)CCCNC(C)CCCNC(C)CCCN)c2nccc(CC)c12.Cl (configuration not stated) | inactive | 0.54 | > 44 | 0.58 | > 41 | > 23.8 | > 23.8 | > 23.8 | > 23.8 | > 23.8 | > 23.8 | 19.7 | 14 | 32 | inactive | 12 | 20 | 20 | > 20 | > 20 | Activity [1]: inactive; IC50 [19]: 12.1 µg/mL; MFC [19]: 20 µg/mL; MIC [19]: 20 µg/mL; Activity [20]: inactive; Activity [21]: inactive; Activity [22]: inactive; Activity [23]: inactive; Activity [24]: inactive; Activity [25]: inactive
3 | CCCCCOc1c(OC)cc(NC(C)CCCNC(C)CCCN)c2nccc(CC)c12.Cl (configuration not stated) | inactive | 0.52 | > 45.7 | 0.18 | > 132 | > 23.8 | > 23.8 | > 23.8 | > 23.8 | > 23.8 | > 23.8 | 9.6 | 3.7 | 7 | inactive | 13.6 | 20 | 20 | 13.4 | > 20 | MBC [17]: 20 µg/mL; MIC [17]: 20 µg/mL; IC50 [19]: 5.8 µg/mL; MFC [19]: 10 µg/mL; MIC [19]: 10 µg/mL; Activity [20]: inactive; Activity [21]: inactive; Activity [22]: inactive; Activity [23]: inactive; Activity [24]: inactive; Activity [25]: inactive
